Tests used:
E. coli [1] = test: FLIM-phasors of E. coli exposed to ampicillin (preliminary data, FIG. 13); type: cell-based
Excerpt: The process of antibiotic susceptibility testing involves: isolation of bacteria from patient samples, immobilization of bacteria on agarose pads that contain different antibiotics supplied above the accepted minimum inhibitory concentration from the major classes commonly used in clinical settings including amoxicillin (penicillin-type), cephalexin (cephalosporin), erythromycin (macrolide), ciprofloxacin (fluoroquinolone), trimethoprim (sulfonamide), tetracycline, and gentamicin (aminoglycoside), imaging using the FLIM-AST device immediately and at 15-minute intervals for 2 hours to assess metabolic kinetics in response to antibiotics (FIG. 12).
The antibiotic susceptibility determination is performed by comparing FLIM-phasor profiles during the 2-hour incubation using software.
The FLIM microscope uses an 80 MHz ultrafast Ti:Sapphire Mai Tai laser (Spectra-physics, Santa Clara, Calif.) set at 740 nm for excitation. […] An H7422P-40 photomultiplier tube module (Hamamatsu, Bridgewater, N.J.) and A320 FastFLIM Box (ISS, Champaign, Ill.) were used to measure fluorescence lifetime. Image acquisition was controlled by SimFCS software (Laboratory for Fluorescence Dynamics, Irvine, Calif.).

[2] = tested on: surface-attached P. aeruginosa; test: Image-based virulence (host killing) assay with amoeba host cells and calcein-AM; type: cell-based, Pseudomonas aeruginosa
Method: P. aeruginosa cells were assayed using an image-based virulence assay as described previously (12, 50). P. aeruginosa strains were cultured in PS:DB, diluted 1:100 into 60×15 mm plastic petri dishes (Corning, Corning, N.Y.), cultured for 4 to 6 hours by shaking at 100 rpm, and harvested. Planktonic cells were assayed by transferring 10 μL of culture from the petri dish to a new petri dish, mixing with an equal volume of D. discoideum that were grown to an OD600 of 0.2-0.5, and immobilizing by placing an agar pad on top of the mixture (FIG. 11C). Agar pads were made using Bacto agar at a concentration of 1%, DB buffer, and 1 μM calcein acetoxymethyl (AM) ester (Molecular Probes, Eugene, Oreg.), and were cut into 1.5×1.5 cm squares (12, 50). Surface-attached cells were assayed by aspirating planktonic cells from the culture, washing with DB buffer to remove planktonic cells, mixing with an equal volume of D. discoideum, and immobilizing by placing an agar pad on top of the mixture (FIG. 11C) (50). The immobilized planktonic or surface-attached P. aeruginosa and D. discoideum were incubated at room temperature for 1 hour and imaged using fluorescence microscopy. The host killing index (12, 50) was computed as the average ratio of calcein-AM fluorescence to cell area in individual amoeba cells for 30 to 200 cells in each experiment.
Fluorescence microscopy to assess calcein-AM fluorescence was performed using a Nikon Eclipse Ti-E microscope (Nikon, Melville, N.Y.) containing Nikon 10× Plan Fluor Ph1 (0.3 NA) and 20×S Plan Fluor Nikon (0.45 NA) objectives, a Sola light engine (Lumencor, Beaverton, Oreg.), an LED-DA/FI/TX filter set (Semrock, Rochester, N.Y.) containing a 409/493/596 dichroic and 474/27 nm and 525/45 nm filters for excitation and emission, respectively, and a Hamamatsu Orca Flash 4.0 V2 camera (Hamamatsu, Bridgewater, N.J.). Images were acquired using Nikon NIS-Elements and analyzed using custom built software written previously (12) in Matlab (Mathworks, Natick, Mass.).
For experiments in which strains cultured in PS:DB were supplemented with individual carbon sources (FIG. 5A-D), pyruvic acid, citric acid, […], glycerol, or glucose was added to cultures at a final concentration of 0.2% at 3 hours following a 1:100 dilution from an overnight culture. Cultures were harvested after 1 additional hour of growth for measurements of fluorescence lifetime and NADH and NAD^+ concentrations. For experiments in which surface-attached strains that were cultured in PS:DB media were treated with antimycin A (FIG. 5E-F), 10 μM antimycin A dissolved in 0.1% ethanol, 0.1% ethanol, alone, or 10 μM antimycin A dissolved in 0.1% ethanol and 0.2% citric acid were added after 3 hours of growth following a 1:100 dilution from an overnight culture. Host killing was measured after an additional 1 to 3 hours of growth (total of 4 to 6 hours of growth).

E. coli [3] = test: FLIM-AST (FAST) antibiotic susceptibility, g value and residual ratio (RR); type: cell-based; conditions: tetracycline-sensitive vs tetracycline-resistant strain, 1 hour
Excerpt: We performed FLIM measurements using our FLIM AST (FAST) device of antibiotic-sensitive and antibiotic-resistant E. coli lab strains MG1655 and MC4100, P. aeruginosa strain PA14, and S. aureus strain RN4220 using a broad range of commonly-used antibiotics including tetracycline, ampicillin, carbenicillin, chloramphenicol, spectinomycin, gentamycin, and kanamycin and using a range of concentrations for each drug. For each antibiotic and strain combination, the minimum inhibitory concentration for each antibiotic was determined through measurements of optical densities of cultures. We treated bacterial strains using a range of concentrations starting from below-MIC to above-MIC concentrations for 1 hour.
We computed g values using the FLIM phasor method. Consistent with our predictions, we observed a significant change in g value following treatment by many antibiotics.
To determine a quantitative assessment of resistance, we computed a metric for the degree of antibiotic susceptibility for a given bacterial strain. Our experiments determined that the residual ratio (RR) number was a good indicator of antibiotic resistance:
where the g value is obtained using the phasor method to fluorescence lifetime imaging microscopy (FLIM) and t0 and t1 are the measurement times at the beginning of the measurement or at the end of the experiment, respectively. […]

P. aeruginosa = test: Fluorescence lifetime imaging microscopy (FLIM) phasor g-values of P. aeruginosa; type: cell-based, Pseudomonas aeruginosa; conditions: planktonic wild-type, 0.2% citrate as sole carbon source, 10 μM antimycin A in 0.1% ethanol vs 0.1% ethanol
Method: Fluorescence lifetime measurements were performed using a custom-built multiphoton microscope setup based on an Olympus FV1000 system and an Olympus IX81 microscope (Olympus, Waltham, Mass.) as described previously (68). The FLIM microscope uses an 80 MHz ultrafast Ti:Sapphire Mai Tai laser (Spectra-physics, Santa Clara, Calif.) set at 740 nm for mulitphoton excitation. The setup used a 690-nm SP dichroic-460/80 nm filter pair for separating emission and a PlanApo N Olympus oil immersion 60× (1.42 NA) objective (Olympus, Waltham, Mass.), which is capable of bacterial single-cell resolution imaging. An H7422P-40 photomultiplier tube module (Hamamatsu, Bridgewater, N.J.) and A320 FastFLIM Box (ISS, Champaign, Ill.) were used to measure fluorescence lifetime. Image acquisition was controlled by SimFCS software version 4 (64-bit) (Laboratory for Fluorescence Dynamics, Irvine, Calif.). Planktonic and surface-attached cells were isolated by modifying a protocol described previously (12, 50) (FIG. 11A).
Masks for bacterial cells were created through SimFCS using fluorescence intensity images and image intensity thresholding (FIG. 11B). Fluorescence lifetimes within the masked areas were transformed using
The microscope was calibrated before each session by setting the fluorescence lifetime obtained for 10 μM rhodamine 110 (Sigma, St. Louis, Mo.) to 4.0 ns. The laser power was set to 20% (<3 mW at back aperture of the microscope) using an acousto-optic modulator (AA Opto Electronic, Orsay, France). Sub-cellular fluorescence lifetimes (FIG. 1A) were collected using the 20× digital zoom mode at a rate of 1.7 sec/frame. All other P. aeruginosa measurements were performed using the 6× digital zoom mode using the same frame rate. For all measurements, 40 sequential frames were acquired to generate a single FLIM image.
P. aeruginosa strains were cultured overnight in PS:DB, diluted 1:100 into 35 mm glass-bottom dishes (MatTek Corporation, Ashland, Mass.) containing the same medium, and cultured for 4 to 6 hours (FIGS. 2E-F, 4A, 5A, and 8C). Alternatively, strains were cultured overnight in minimal medium A, diluted 1:100 into modified minimal media A with single carbon sources in culture tubes (FIGS. 6D-E and 7A-B, D) or glass-bottom dishes and cultured to an OD600 of 0.2 (FIG. 2E-F).
Planktonic cells were transferred to a new glass-bottom dish, immobilized using an agar pad, and imaged immediately (FIG. 11A). Agar pads were made using 1% Bacto agar (BD, Franklin Lakes, N.J.) and DB buffer (1, 2) or modified minimal medium A containing no carbon source for strains that were cultured in PS:DB or modified minimal medium, respectively, and were cut into 1.5×1.5 cm squares. Surface-attached cells were isolated by aspirating the supernatant from the dish, washing the dish to remove planktonic cells with DB buffer or modified minimal medium with no carbon source for strains cultured in PS:DB or modified minimal medium, respectively, and placing an agar pad on the dish surface, and were imaged immediately. Imaging was performed at room temperature.
For experiments involving FLIM measurements of the effects of antimycin A (FIG. 7D), P. aeruginosa were grown in culture tubes to saturation in modified minimal medium A containing 0.2% citrate, diluted 1:100 into the same medium in culture tubes, supplemented with 10 μM antimycin A (Sigma, St. Louis, Mo.) with 0.1% ethanol or with 0.1% ethanol, cultured to an OD600 of 0.2, and immediately measured for fluorescence lifetime. Fluorescence lifetimes for pyocyanin and pyoverdine (FIG. 7C) were measured using solutions of 6.2 mM pyocyanin (P0046, Sigma, St. Louis, Mo.) in DMSO and 5 mg/mL pyoverdine (P8124, Sigma, St. Louis, Mo.) in deionized water, respectively. For FIG. 6D, cells with fluorescence intensities below a value of 1.0, as reported by the SimFCS software, were excluded from the analysis. […]

CC1(C)S[C@@H]2[C@H](NC(=O)[C@H](N)c3ccccc3)C(=O)N2[C@H]1C(=O)O [ampicillin]
average values along the g-axis (E. coli [1]; E. coli exposed to ampicillin): vary with concentration
phasor profile after drug is removed (E. coli [1]; E. coli, after ampicillin is removed): recovers to smaller values of g

O=P(O)(O)O [phosphoric acid, reference compound]
host-killing activity (host killing index) ([2]; surface-attached wild-type P. aeruginosa in rich (PS:DB) medium, supplemented at 3 hours at 0.2%, assessed after 6 hours of growth, amoeba host cells): little impact on host-killing activity

CN(C)[C@@H]1C(O)=C(C(N)=O)C(=O)[C@@]2(O)C(O)=C3C(=O)c4c(O)cccc4[C@@](C)(O)[C@H]3C[C@@H]12 [tetracycline]
concentration at which the increase in RR value begins (E. coli [3]): 50 µg/mL

antimycin A [reference compound]
virulence induced earlier than untreated cells ([2]; surface-attached P. aeruginosa, 10 μM antimycin A in 0.1% ethanol added at 3 hours, host killing at 4.5 to 6 hours): 30 min
shift in fluorescence lifetime g-value (P. aeruginosa): shift towards higher g-value

— US20220287995A1, “COMPOSITIONS AND METHODS FOR INHIBITING BACTERIAL VIRULENCE AND FLIM-BASED DEVICE AND METHOD FOR ANTIBIOTIC SUSCEPTIBILITY TESTING” (THE REGENTS OF THE UNIVERSITY OF CALIFORNIA, priority 2019, published 2022)
